Literature values in patent publication US5679660A, “Pharmaceutical composition comprising diclofenac and cyclodextrin” (Farmarc Nederland BV, priority 1993, dated 1997).

Details: literature, Backensfeld and Mueller 1990

SMILES: OC[C@H]1O[C@@H]2O[C@H]3[C@H](O)[C@@H](O)[C@@H](O[C@H]4[C@H](O)[C@@H](O)[C@@H](O[C@H]5[C@H](O)[C@@H](O)[C@@H](O[C@H]6[C@H](O)[C@@H](O)[C@@H](O[C@H]7[C@H](O)[C@@H](O)[C@@H](O[C@H]8[C@H](O)[C@@H](O)[C@@H](O[C@H]1[C@H](O)[C@H]2O)O[C@@H]8CO)O[C@@H]7CO)O[C@@H]6CO)O[C@@H]5CO)O[C@@H]4CO)O[C@@H]3CO [Beta-cyclodextrin]
- effect on aqueous solubility of diclofenac: increase the aqueous solubility
